Patent US11485731B2, “Compounds and methods useful in the treatment of a PRMT5-mediated disorder” (ARGONAUT THERAPEUTICS LIMITED, priority 2017, dated 2022)

The molecules below were run against human PRMT5/MEP50 (Homo sapiens (Human), UniProt O14744) (assay: PRMT5 chemiluminescent assay). Conditions: human PRMT5/MEP50 expressed in HEK293 cells; biotinylated histone peptides; Histone H4 monomethyl R3 antibody; chemiluminescent readout.
Type: biochemical
In short: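 HEK293-expressed PRMT5/MEP50, diluted to 5 ng/µL in assay buffer, reacted 60 min with rotation on plate-bound biotinylated histone peptides. Product was detected with anti-histone H4 R3 monomethyl antibody (60 min), then HRP secondary (30 min) and chemiluminescent substrate. IC50 values came from the chemiluminescence signal.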

human PRMT5/MEP50, sequence (O14744 whole entry): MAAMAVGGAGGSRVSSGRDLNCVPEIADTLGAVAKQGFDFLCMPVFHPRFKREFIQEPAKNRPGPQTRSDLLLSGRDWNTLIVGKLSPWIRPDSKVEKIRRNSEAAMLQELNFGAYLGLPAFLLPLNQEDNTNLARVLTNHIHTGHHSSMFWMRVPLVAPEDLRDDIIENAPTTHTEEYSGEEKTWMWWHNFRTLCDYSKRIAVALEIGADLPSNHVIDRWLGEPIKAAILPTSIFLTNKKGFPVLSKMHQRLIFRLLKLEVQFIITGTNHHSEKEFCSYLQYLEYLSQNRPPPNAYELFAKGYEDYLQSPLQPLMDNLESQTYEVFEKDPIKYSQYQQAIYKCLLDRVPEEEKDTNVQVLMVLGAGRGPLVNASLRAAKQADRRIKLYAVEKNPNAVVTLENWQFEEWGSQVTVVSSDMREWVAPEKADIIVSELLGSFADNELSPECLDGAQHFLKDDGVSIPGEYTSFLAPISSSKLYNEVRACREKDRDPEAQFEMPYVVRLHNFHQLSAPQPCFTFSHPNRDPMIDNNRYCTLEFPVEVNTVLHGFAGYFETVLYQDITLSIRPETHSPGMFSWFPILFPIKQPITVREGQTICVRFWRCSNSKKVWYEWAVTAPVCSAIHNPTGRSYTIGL
human PRMT5/MEP50, sequence (Q9BQA1 whole entry partner): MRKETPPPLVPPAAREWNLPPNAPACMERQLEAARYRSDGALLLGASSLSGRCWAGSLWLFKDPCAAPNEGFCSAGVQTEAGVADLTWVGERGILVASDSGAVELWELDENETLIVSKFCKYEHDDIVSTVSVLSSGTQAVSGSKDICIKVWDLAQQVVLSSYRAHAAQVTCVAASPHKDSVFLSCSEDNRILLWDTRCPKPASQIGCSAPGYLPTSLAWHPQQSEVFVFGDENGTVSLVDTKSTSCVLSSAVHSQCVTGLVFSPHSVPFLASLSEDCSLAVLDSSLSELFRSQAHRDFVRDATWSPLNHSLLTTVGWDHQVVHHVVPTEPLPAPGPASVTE

| IC50 [nM] | Compound |
| --- | --- |
| 125 | CC(=O)N1CCCN(C(=O)NCC(O)CN2CCc3ccccc3C2)CC1 (stereo not drawn) [Example 1CM, 4-acetyl-N-(3-(3,4-dihydroisoquinolin-2(1H)-yl)-2-hydroxypropyl)-1,4-diazepane-1-carboxamide] |
| 749 | O=C(NCC(O)CN1CCc2ccsc2C1)N1CCC(c2ccccc2)C1 (stereo not drawn) [Example 1Af, N-(3-(4,7-dihydrothieno[2,3-c]pyridin-6(5H)-yl)-2-hydroxypropyl)-3-phenylpyrrolidine-1-carboxamide] |
| 5030 | CN(C)C(=O)C1CN(C(=O)OCC(O)CN2CCc3ccccc3C2)C1 (stereo not drawn) [Example 4S, 3-(3,4-dihydroisoquinolin-2(1H)-yl)-2-hydroxypropyl 3-(dimethylcarbamoyl)azetidine-1-carboxylate] |
| 360 | O=C(OCC(O)CN1CCc2ccccc2C1)N1CCCc2ccccc21 (stereo not drawn) [Example 4AG, 3-(3,4-dihydroisoquinolin-2(1H)-yl)-2-hydroxypropyl 3,4-dihydroquinoline-1(2H)-carboxylate] |
| 58 | O=C(NC[C@H](O)CN1CCc2ccccc2C1)N1CCCC(C2CCSCC2)C1 (stereo partly drawn) [Example 1CA, N-((S)-3-(3,4-dihydroisoquinolin-2(1H)-yl)-2-hydroxypropyl)-3-(tetrahydro-2H-thiopyran-4-yl)piperidine-1-carboxamide] |
| 374 | O=C(OCC(O)CN1CCc2sccc2C1)N1CCCC(c2ccccc2)C1 (stereo not drawn) [Example 4AC, 3-(6,7-dihydrothieno[3,2-c]pyridin-5(4H)-yl)-2-hydroxypropyl 3-phenylpiperidine-1-carboxylate] |
| 490 | Cn1cc(C2CCCN(C(=O)NC[C@H](O)CN3CCc4ccccc4C3)C2)ccc1=O (stereo partly drawn) [Example 1BR, N-((S)-3-(3,4-dihydroisoquinolin-2(1H)-yl)-2-hydroxypropyl)-3-(1-methyl-6-oxo-1,6-dihydropyridin-3-yl)piperidine-1-carboxamide] |
| 267 | O=C(NCC(O)CN1CCc2ccccc2C1)N1CCCC(Oc2ccccc2)C1 (stereo not drawn) [Example 1H, N-[2-hydroxy-3-(1,2,3,4-tetrahydroisoquinolin-2-yl)propyl]-3-phenoxypiperidine-1-carboxamide] |
| 13 | O=C(OC[C@H](O)CN1CCc2ccccc2C1)N1CC[C@H](c2ccccc2)C1 [Example 4L, (R)-3-(3,4-dihydroisoquinolin-2(1H)-yl)-2-hydroxypropyl (R)-3-phenylpyrrolidine-1-carboxylate] |
| 342 | O=C(NCC(O)CN1CCc2sccc2C1)N1CCc2ccccc2C1 (stereo not drawn) [Example 1AA, N-(3-(6,7-dihydrothieno[3,2-c]pyridin-5(4H)-yl)-2-hydroxypropyl)-3,4-dihydroisoquinoline-2(1H)-carboxamide] |
| 2710 | CN(C)C(=O)C1CCN(C(=O)OC[C@H](O)CN2CCc3ccccc3C2)CC1 [Example 4O, (R)-3-(3,4-dihydroisoquinolin-2(1H)-yl)-2-hydroxypropyl 4-(dimethylcarbamoyl)piperidine-1-carboxylate] |
| 112 | COC(=O)N1CCCN(C(=O)NC[C@H](O)CN2CCc3ccccc3C2)CC1 [Example 1AS, Methyl (S)-4-((3-(3,4-dihydroisoquinolin-2(1H)-yl)-2-hydroxypropyl)carbamoyl)-1,4-diazepane-1-carboxylate] |
| 80 | O=C(NC[C@H](O)CN1CCc2ccccc2C1)N1CCCc2ccccc21 [Example 1AJ, (S)-N-(3-(3,4-dihydroisoquinolin-2(1H)-yl)-2-hydroxypropyl)-3,4-dihydroquinoline-1(2H)-carboxamide] |
| 276 | O=C(NCC(O)CN1CCc2ccccc2C1)N1CCC(Cc2ccccc2)CC1 (stereo not drawn) [Example 1Q, 4-benzyl-N-(3-(3,4-dihydroisoquinolin-2(1H)-yl)-2-hydroxypropyl)piperidine-1-carboxamide] |
| 342 | O=C(OCCCN1CCc2ccccc2C1)N1CCC(c2ccccc2)C1 (stereo not drawn) [Example 7, 3-(3,4-dihydroisoquinolin-2(1H)-yl)propyl 3-phenylpyrrolidine-1-carboxylate] |
| 8500 | O=C(NCC(O)CN1CCc2ccccc2C1)N1CCc2ccccc21 (stereo not drawn) [Example 2B, N-[2-hydroxy-3-(1,2,3,4-tetrahydroisoquinolin-2-yl)propyl]-2,3-dihydro-1H-indole-1-carboxamide] |

| IC50 [nM] | Compound |
| --- | --- |
| 12300 | O=C(NC[C@H](O)CN1CCc2ccccc2C1)N1CCC(N2CCOCC2)C1 (stereo partly drawn) [Example 1CD, N-((S)-3-(3,4-dihydroisoquinolin-2(1H)-yl)-2-hydroxypropyl)-3-morpholinopyrrolidine-1-carboxamide] |
| 5600 | O=C(NC[C@H](O)CN1CCc2ccccc2C1)N1CCC(F)(F)CC1 [Example 1BF, (S)-N-(3-(3,4-dihydroisoquinolin-2(1H)-yl)-2-hydroxypropyl)-4,4-difluoropiperidine-1-carboxamide] |
| 237 | O=C(NC[C@H](O)CN1CCc2ccccc2C1)N1CCCC(c2cnccn2)C1 (stereo partly drawn) [Example 1BS, N-((S)-3-(3,4-dihydroisoquinolin-2(1H)-yl)-2-hydroxypropyl)-3-(pyrazin-2-yl)piperidine-1-carboxamide] |
| 221 | O=C(NCC(O)CN1CCc2ccccc2C1)N1CCCC(Nc2ccncc2)C1 (stereo not drawn) [Example 1P, N-(3-(3,4-dihydroisoquinolin-2(1H)-yl)-2-hydroxypropyl)-3-(pyridin-4-ylamino)piperidine-1-carboxamide] |
| 1870 | O=C(NCC(O)CN1CCc2ccccc2C1)N1CCN(Cc2ccccc2)CC1 (stereo not drawn) [Example 1D, 4-benzyl-N-[2-hydroxy-3-(1,2,3,4-tetrahydroisoquinolin-2-yl)propyl]piperazine-1-carboxamide] |
| 652 | O=C(NCC(O)CN1CCc2ccsc2C1)N1CCCC(c2ccccc2)C1 (stereo not drawn) [Example 1AD, N-(3-(4,7-dihydrothieno[2,3-c]pyridin-6(5H)-yl)-2-hydroxypropyl)-3-phenylpiperidine-1-carboxamide] |
| 2650 | CN1CCN(C2CCCN(C(=O)NC[C@H](O)CN3CCc4ccccc4C3)C2)CC1 (stereo partly drawn) [Example 1BY, N-((S)-3-(3,4-dihydroisoquinolin-2(1H)-yl)-2-hydroxypropyl)-3-(4-methylpiperazin-1-yl)piperidine-1-carboxamide] |
| 225 | O=C(OC[C@H](O)CN1CCc2ccccc2C1)N1CCC(C(=O)N2CCOCC2)CC1 [Example 4P, (R)-3-(3,4-dihydroisoquinolin-2(1H)-yl)-2-hydroxypropyl 4-(morpholine-4-carbonyl)piperidine-1-carboxylate] |
| 21 | O=C(OCC(O)CN1CCc2ccsc2C1)N1CCC(c2ccccc2)C1 (stereo not drawn) [Example 4AF, 3-(4,7-dihydrothieno[2,3-c]pyridin-6(5H)-yl)-2-hydroxypropyl 3-phenylpyrrolidine-1-carboxylate] |
| 8 | O=C(OC[C@H](O)CN1CCc2ccccc2C1)N1CCc2ccccc2C1 [Example 4G, (R)-3-(3,4-dihydroisoquinolin-2(1H)-yl)-2-hydroxypropyl 3,4-dihydroisoquinoline-2(1H)-carboxylate] |
| 1820 | O=C(NC[C@H](O)CN1CCc2ccccc2C1)N1CCCS(=O)(=O)C(c2ccccc2)C1 (stereo partly drawn) [Example 1BO, N-((S)-3-(3,4-dihydroisoquinolin-2(1H)-yl)-2-hydroxypropyl)-2-phenyl-1,4-thiazepane-4-carboxamide 1,1-dioxide] |
| 896 | O=C(NCC(O)CN1CCc2ccccc2C1)N1CCSCC1 (stereo not drawn) [Example 1U, N-(3-(3,4-dihydroisoquinolin-2(1H)-yl)-2-hydroxypropyl)thiomorpholine-4-carboxamide] |
| 6870 | O=C(NCC(O)CN1CCc2ccccc2C1)N1CCCC1 (stereo not drawn) [Example 1M, N-[2-hydroxy-3-(1,2,3,4-tetrahydroisoquinolin-2-yl)propyl]pyrrolidine-1-carboxamide] |
| 41 | O=C(OCC(O)CN1CCc2sccc2C1)N1CCC(c2ccccc2)C1 (stereo not drawn) [Example 4AE, 3-(6,7-dihydrothieno[3,2-c]pyridin-5(4H)-yl)-2-hydroxypropyl 3-phenylpyrrolidine-1-carboxylate] |
| 1640 | O=C(NC[C@H](O)CN1CCc2ccccc2C1)N1CCCC(N2CCCOCC2)C1 (stereo partly drawn) [Example 1CC, N-((S)-3-(3,4-dihydroisoquinolin-2(1H)-yl)-2-hydroxypropyl)-3-(1,4-oxazepan-4-yl)piperidine-1-carboxamide] |

| Compound | IC50 [nM] |
| --- | --- |
| O=C(NC[C@H](O)CN1CCc2ccccc2C1)N1CCCC(c2ccccc2)C1 (stereo partly drawn) [Example 1AG, (S)-N-((S)-3-(3,4-dihydroisoquinolin-2(1H)-yl)-2-hydroxypropyl)-3-phenylpiperidine-1-carboxamide] | 185 |
| O=C(NC[C@H](O)CN1CCc2ccccc2C1)N1CCS[C@@H](c2ccccc2)C1 (single isomer, unassigned) [Example 5C, (S)-N-((S)-3-(3,4-dihydroisoquinolin-2(1H)-yl)-2-hydroxypropyl)-2-phenylthiomorpholine-4-carboxamide or (R)-N-((S)-3-(3,4-dihydroisoquinolin-2(1H)-yl)-2-hydroxypropyl)-2-phenylthiomorpholine-4-carboxamide] | 17 |
| O=C(NC[C@H](O)CN1CCc2ccccc2C1)N1CCCC(c2ccccn2)C1 (stereo partly drawn) [Example 1BQ, N-((S)-3-(3,4-dihydroisoquinolin-2(1H)-yl)-2-hydroxypropyl)-3-(pyridin-2-yl)piperidine-1-carboxamide] | 48 |
| O=C(NC[C@H](O)CN1CCc2ccccc2C1)N1CCCC(C2CCOCC2)C1 (stereo partly drawn) [Example 1BZ, N-((S)-3-(3,4-dihydroisoquinolin-2(1H)-yl)-2-hydroxypropyl)-3-(tetrahydro-2H-pyran-4-yl)piperidine-1-carboxamide] | 270 |
| O=C(NC[C@H](O)CN1CCc2ccccc2C1)N1CCC[C@H](c2ccccn2)C1 (single isomer, unassigned) [Example 5F, (S)-N-((S)-3-(3,4-dihydroisoquinolin-2(1H)-yl)-2-hydroxypropyl)-3-(pyridin-2-yl)piperidine-1-carboxamide or (R)-N-((S)-3-(3,4-dihydroisoquinolin-2(1H)-yl)-2-hydroxypropyl)-3-(pyridin-2-yl)piperidine-1-carboxamide] | 97 |
